# Measurements: ChEMBL document CHEMBL2390906, “Synthetic chalcones and sulfonamides as new classes of Yersinia enterocolitica YopH tyrosine phosphatase inhibitors” (Eur J Med Chem, 2013)
# Tests used:
# [1] = molecular target: T1, Tyrosine-protein phosphatase YopH (Yersinia enterocolitica, UniProt P15273); assay: Competitive inhibition of Yersinia enterocolitica recombinant YopH using pNPP as substrate after 10 mins by Line-weaver Burk plot analysis
# [2] = molecular target: T1, Tyrosine-protein phosphatase YopH; assay: Inhibition of Yersinia enterocolitica recombinant YopH using pNPP as substrate after 10 mins by spectrophotometry
# [3] = molecular target: Tyrosine-protein phosphatase YopH (Yersinia enterocolitica) (UniProt P15273); assay: Inhibition of Yersinia enterocolitica recombinant YopH using pNPP as substrate at 25 uM after 10 mins by spectrophotometry
# Tyrosine-protein phosphatase YopH (Yersinia enterocolitica), sequence (P15273 whole entry): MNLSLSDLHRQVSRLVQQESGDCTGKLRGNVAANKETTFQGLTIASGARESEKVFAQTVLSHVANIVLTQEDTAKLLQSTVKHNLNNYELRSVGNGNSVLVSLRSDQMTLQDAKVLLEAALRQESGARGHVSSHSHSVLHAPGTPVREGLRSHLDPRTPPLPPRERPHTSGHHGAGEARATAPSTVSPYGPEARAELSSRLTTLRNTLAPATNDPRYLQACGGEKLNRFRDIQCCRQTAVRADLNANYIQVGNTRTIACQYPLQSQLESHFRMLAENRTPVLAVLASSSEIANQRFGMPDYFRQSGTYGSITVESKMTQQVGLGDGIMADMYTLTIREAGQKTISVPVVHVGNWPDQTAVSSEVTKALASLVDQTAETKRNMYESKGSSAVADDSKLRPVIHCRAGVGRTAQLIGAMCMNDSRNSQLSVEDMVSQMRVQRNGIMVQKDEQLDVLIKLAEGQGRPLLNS
# [4] = molecular target: T1, Tyrosine-protein phosphatase YopH; assay: Noncompetitive inhibition of Yersinia enterocolitica recombinant YopH using pNPP as substrate after 10 mins by Line-weaver Burk plot analysis
# T1 sequence (P15273 whole entry): as above
Compound,Ki [1],IC50 [2],inhibition [3],Ki [4]
O=C1[C@@H]2C3C=CC(O3)[C@@H]2C(=O)N1c1ccc(S(=O)(=O)N2CCCC2)cc1,4.4 µM,9 µM,76.4%,
O=C1c2cccc3c(Cl)ccc(c23)C(=O)N1Cc1ccc(S(=O)(=O)N2CCOCC2)cc1,,15.5 µM,82.1%,36 µM
O=C(/C=C/c1ccc2c(c1)OCO2)c1cccc([N+](=O)[O-])c1,4.5 µM,9.9 µM,31.3%,
O=C(/C=C/c1cccc([N+](=O)[O-])c1)c1ccc2ccccc2c1,,122 µM,34.7%,
O=C(/C=C/c1ccc(-c2cc(C(F)(F)F)ccc2Cl)o1)c1ccc2c(c1)OCO2,11.1 µM,38.6 µM,33.8%,
O=C(/C=C/c1ccc2c(c1)OCO2)c1ccc([N+](=O)[O-])cc1,4.4 µM,15.1 µM,65.7%,
CC12C=CC(O1)[C@H]1C(=O)N(c3ccc(S(=O)(=O)N/N=C/c4ccc(Cl)c(Cl)c4)cc3)C(=O)[C@H]12 (stereo not given in full),,62.2 µM,45.6%,
COc1ccc2nc(Cl)c(/C=C/C(=O)c3ccc4ccccc4c3)cc2c1,,268 µM,34.6%,
O=C(/C=C/c1ccccc1)c1ccc2ccccc2c1,,246 µM,30.9%,
O=C(/C=C/c1ccc2ccccc2c1)c1ccc2ccccc2c1,14.1 µM,20.3 µM,66.9%,
O=C(/C=C/c1cc2ccccc2nc1Cl)c1ccc2c(c1)OCO2,,117 µM,44.2%,
O=C(/C=C/c1cccc2ccccc12)c1ccc2ccccc2c1,,193 µM,26.5%,
